According to paper PMC3113977, “Structural characteristics and antiviral activity of multiple peptides derived from MDV glycoproteins B and H” (Virology Journal, 2011):
Where a SMILES comes first, the peptide text is derived from it.

What was measured:
[1] = test system: MDV; format: cell-based, Marek's disease virus (MDV) strain RB1B
[2] = test system: MDV; parameters: species or system Marek's disease virus (MDV) strain RB1B; settings: in vivo
[3] = Gel filtration (GF) analysis of oligomeric state; format: physicochemical; settings: for MW of polymer (GF peak molecular mass): Superdex G75, 20 mM Tris-HCl pH 8.0, estimated against protein standards; for Oligomeric state: aqueous solution, Superdex G75, 20 mM Tris-HCl pH 8.0, GF peak mass versus MS monomer mass
Procedure: Figure 5 GF results and structural analyses of five peptides. (top) GF analysis of peptides. The purified peptides were loaded onto the Superdex G75 column in a buffer solution of 20 mM Tris-HCl, pH 8.0. The peak molecular mass was estimated by comparison with the protein standards running on the same column. The clear peak of gHH1 occurred at about 12.1 kDa. This molecular mass matches the approximate sum of four molecules, indicating the formation of the homotetrameric structure. The peak of gHH2 occurred at about 7.2 kDa, indicating the formation of the homodimeric structure. The peak of gHH3 occurred at about 3.8 kDa, indicating the monomeric state. The peak of gHH5 occurred at about 9.1 kDa, indicating the formation of the homotrimeric structure. The peak of gBH1 occurred at about 10.7 kDa, indicating the formation of the homotrimeric structure. (bottom) Sequences and calculated oligomeric states of gHH1, gHH2, gHH3, gHH5, and gBH1 in aqueous solution. TEXT PRINTED IN THE PICTURE: gHH1: MW of monomer: 3184 Da; MW of polymer: 12.1 kDa; Oligomeric state: 4 (tetramer) | gHH2: MW of monomer: 3623 Da; MW of polymer: 7.2 kDa; Oligomeric state: 2 (dimer) | gHH3: MW of monomer: 3795 Da; MW of polymer: 3.8 kDa; Oligomeric state: 1 (monomer) | gHH5: MW of monomer: 3002 Da; MW of polymer: 9.1 kDa; Oligomeric state: 3 (trimer) | gBH1: MW of monomer: 3303 Da; MW of polymer: 10.7 kDa; Oligomeric state: 3 (trimer)
The purified cleaved peptides were loaded onto the Superdex G75 column in a solution buffer of 20 mM Tris-HCl, pH 8.0. The peak molecular mass was estimated by comparison with protein standards running on the same column. The peak fractions were collected and analysed by 15% SDS-PAGE. The analytical column was calibrated using a series of individual runs of standard molecular mass proteins as markers including bovine serum albumin (68 kDa), egg white albumin (43 kDa), […] (13.7 kDa), aprotinin (6.5 kDa), antimicrobial peptides (5 kDa), and vitamin B12 (1.4 kDa).

| Structure (SMILES) | plaque formation [1] | lesion formation on CAMs (words) [2] | MW of polymer (GF peak molecular mass) [3] | Oligomeric state [3] | inhibition of plaque formation [1] | lesion formation on CAMs [2] | plaque formation (result in words) [1] |
| --- | --- | --- | --- | --- | --- | --- | --- |
| CC[C@H](C)[C@H](NC(=O)[C@H](C)NC(=O)[C@H](C)NC(=O)[C@H](CCC(=O)O)NC(=O)[C@H](C)NC(=O)[C@H](CCC(=O)O)NC(=O)[C@H](CCCNC(=N)N)NC(=O)[C@H](CCCCN)NC(=O)[C@@H](NC(=O)[C@H](CS)NC(=O)[C@H](CCC(N)=O)NC(=O)CNC(=O)[C@H](CC(C)C)NC(=O)[C@@H](NC(=O)[C@@H](NC(=O)[C@@H](N)CCCNC(=N)N)[C@@H](C)CC)[C@@H](C)CC)[C@@H](C)CC)C(=O)N[C@@H](CCC(=O)O)C(=O)N[C@@H](CCC(N)=O)C(=O)N[C@H](C(=O)N[C@@H](Cc1ccccc1)C(=O)N[C@@H](CCCNC(=N)N)C(=O)N[C@H](C(=O)N[C@@H](CCCCN)C(=O)N[C@@H](Cc1ccc(O)cc1)C(=O)N[C@@H](CC(N)=O)C(=O)N[C@@H](CC(=O)O)C(=O)N[C@@H](CO)C(=O)N[C@@H](Cc1c[nH]cn1)C(=O)O)[C@@H](C)O)[C@@H](C)CC [gBH1] | ~12% | significantly able to reduce lesion formation | 10.7 kDa | 3 |  |  |  |
| CC[C@H](C)[C@H](NC(=O)[C@H](CCC(=O)O)NC(=O)[C@H](CCSC)NC(=O)[C@H](CC(=O)O)NC(=O)[C@H](CO)NC(=O)[C@H](C)NC(=O)[C@H](CC(N)=O)NC(=O)[C@H](CCSC)NC(=O)[C@@H](N)Cc1c[nH]cn1)C(=O)N[C@@H](CCCCN)C(=O)N[C@@H](CO)C(=O)N[C@@H](Cc1ccc(O)cc1)C(=O)N[C@H](C(=O)N[C@@H](CC(N)=O)C(=O)N[C@@H](CCSC)C(=O)N[C@H](C(=O)N[C@@H](CCC(=O)O)C(=O)N[C@@H](CO)C(=O)N[C@H](C(=O)N[C@@H](CCC(=O)O)C(=O)N[C@@H](CCC(=O)O)C(=O)N[C@@H](CO)C(=O)N[C@@H](CO)C(=O)N[C@@H](CC(N)=O)C(=O)N[C@@H](Cc1ccc(O)cc1)C(=O)N[C@@H](CC(=O)O)C(=O)N[C@@H](Cc1ccccc1)C(=O)O)C(C)C)[C@@H](C)CC)[C@@H](C)CC [gHH1] (H-HMNASDMEIKSYINMIESVEESSNYDF-OH; N-terminus and C-terminus assumed) | completely inhibited | significantly able to reduce lesion formation | 12.1 kDa | 4 | 100% | completely inhibited |  |
| CC[C@H](C)[C@H](NC(=O)[C@H](Cc1ccc(O)cc1)NC(=O)CNC(=O)[C@H](CO)NC(=O)[C@H](CCC(N)=O)NC(=O)[C@H](Cc1ccccc1)NC(=O)[C@H](C)NC(=O)[C@H](CC(N)=O)NC(=O)[C@H](CCCNC(=N)N)NC(=O)[C@@H](NC(=O)[C@H](CO)NC(=O)[C@H](C)NC(=O)[C@@H](NC(=O)[C@H](CC(C)C)NC(=O)[C@H](CO)NC(=O)[C@H](CCSC)NC(=O)[C@H](Cc1ccccc1)NC(=O)[C@H](CC(C)C)NC(=O)[C@H](CCCNC(=N)N)NC(=O)[C@@H](NC(=O)[C@@H](NC(=O)[C@@H](NC(=O)[C@@H](N)C(C)C)C(C)C)[C@@H](C)O)[C@@H](C)O)C(C)C)C(C)C)C(=O)N[C@@H](CO)C(=O)N[C@@H](Cc1ccccc1)C(=O)N[C@@H](CC(=O)O)C(=O)N[C@@H](CCC(=O)O)C(=O)N[C@H](C(=O)N[C@H](C(=O)N[C@@H](CCCCN)C(=O)N[C@H](C(=O)N[C@@H](CCC(=O)O)C(=O)O)[C@@H](C)O)[C@@H](C)CC)[C@@H](C)CC [gHH2] (H-VVTTRLFMSLVASVRNAFQSGYISFDEIIKTE-OH; N-terminus and C-terminus assumed) |  | significantly able to reduce lesion formation | 7.2 kDa | 2 |  |  | completely inhibited |
| CC[C@H](C)[C@H](NC(=O)[C@H](CO)NC(=O)[C@H](CC(C)C)NC(=O)[C@H](CO)NC(=O)[C@H](C)NC(=O)[C@@H](NC(=O)[C@H](CC(N)=O)NC(=O)[C@H](CCCCN)NC(=O)[C@H](CO)NC(=O)[C@H](C)NC(=O)[C@H](CC(N)=O)NC(=O)[C@@H](NC(=O)[C@@H](NC(=O)[C@@H](NC(=O)[C@H](CCCCN)NC(=O)[C@H](CCCNC(=N)N)NC(=O)[C@@H](NC(=O)[C@H](CC(C)C)NC(=O)[C@H](CO)NC(=O)[C@H](CCCCN)NC(=O)[C@@H](NC(=O)[C@@H](NC(=O)[C@H](CC(=O)O)NC(=O)[C@H](C)NC(=O)[C@@H](N)CC(N)=O)[C@@H](C)CC)[C@@H](C)CC)[C@@H](C)CC)[C@@H](C)O)[C@@H](C)CC)[C@@H](C)CC)[C@@H](C)O)C(=O)N[C@@H](CC(C)C)C(=O)N[C@@H](CCC(N)=O)C(=O)N[C@@H](Cc1c[nH]cn1)C(=O)N[C@@H](CC(C)C)C(=O)N[C@@H](Cc1ccc(O)cc1)C(=O)N[C@H](C(=O)N[C@@H](CC(C)C)C(=O)N[C@@H](CCCNC(=N)N)C(=O)N[C@@H](CO)C(=O)O)C(C)C [gHH3] (H-NADIIKSLIRKTIINASKNTASLSILQHLYVLRS-OH; N-terminus and C-terminus assumed) | ~20% | significantly able to reduce lesion formation | 3.8 kDa | 1 |  |  |  |
| CC[C@H](C)[C@H](NC(=O)[C@H](CCCCN)NC(=O)[C@@H](NC(=O)[C@H](Cc1ccc(O)cc1)NC(=O)[C@H](CCSC)NC(=O)[C@H](CCC(=O)O)NC(=O)[C@H](CCC(N)=O)NC(=O)[C@@H](NC(=O)[C@@H](NC(=O)[C@H](CC(C)C)NC(=O)[C@H](CCC(=O)O)NC(=O)[C@@H](NC(=O)[C@H](C)NC(=O)[C@@H](NC(=O)[C@@H](NC(=O)[C@H](Cc1c[nH]cn1)NC(=O)[C@H](CCC(=O)O)NC(=O)[C@H](CCC(=O)O)NC(=O)[C@@H](NC(=O)[C@@H](N)CS)[C@@H](C)O)[C@@H](C)CC)C(C)C)[C@@H](C)O)C(C)C)[C@@H](C)CC)[C@@H](C)CC)C(=O)N[C@@H](CC(N)=O)C(=O)N[C@H](C(=O)N[C@@H](CCCCN)C(=O)N[C@@H](CC(N)=O)C(=O)N[C@@H](CO)C(=O)N1CCC[C@H]1C(=O)O)C(C)C [gHH5] (H-CTEEHIVATELVIQEMYIKINVKNSP-OH; N-terminus and C-terminus assumed) | ~13% | significantly able to reduce lesion formation | 9.1 kDa | 3 |  |  |  |
